Experimental findings from ChEMBL document CHEMBL1201862, “PubChem BioAssay data set” (2004) are described below.

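Compound exposure: 48 hours, 5 concentrations, 96-well plates. Here, GI50 denotes the concentration required for 50% inhibition of growth.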 The source made the active and inactive calls. No stated cut-off is given here; in the data, active = GI50 up to about 1.1 µM and inactive = higher.

Test systems include 786-0; ACHN; CAKI-1; HCT-116; IGROV-1; MCF7; MOLT-4; Malme-3M; NCI-H23; NCI-H460; NCI-H522; NCI/ADR-RES; OVCAR-3; OVCAR-5; OVCAR-8; SK-MEL-2; SW-620; U-251; UACC-257.
What all share (assay): NCI tumour cell line growth inhibition, 48 h

Consider `CCNC(=O)c1cc(Cl)ccc1NC(=O)C12CC3CC(CC(C3)C1)C2`, for which the GI50 in the experiment with 786-0 is 22.8 µM (inactive); in the experiment on ACHN, 44.1 µM (inactive); in the experiment on CAKI-1, 30.3 µM (inactive); in the experiment with HCT-116, 31.3 µM (inactive); in the experiment with IGROV-1, 33.1 µM (inactive); in the experiment with MCF7, 39.1 µM (inactive). The GI50 with MOLT-4 is 34.8 µM (inactive); in the experiment with Malme-3M it was > 100 µM (inactive); in the experiment on NCI-H23, 56.8 µM (inactive); with NCI-H460, 34.3 µM (inactive); in the experiment with NCI-H522, 75.5 µM (inactive); with NCI/ADR-RES it was 47.8 µM (inactive). The GI50 in the experiment with OVCAR-3 was 36.1 µM (inactive); with OVCAR-5, 42.3 µM (inactive); in the experiment with OVCAR-8, 34.3 µM (inactive); with SK-MEL-2, 23.1 µM (inactive); in the experiment on SW-620, 47.2 µM (inactive); in the experiment on U-251, 34.5 µM (inactive). Moreover, the GI50 in the experiment on UACC-257 is 30.4 µM (inactive).

Turning to `CC1=NN(c2cccc(Cl)c2)C2(SCC(=O)N2c2nc3ccccc3s2)C1=CC=Cc1ccccc1` (stereo unspecified), the GI50 in the experiment on 786-0 is 35.2 µM (inactive); in the experiment on ACHN it was 22.3 µM (inactive); with CAKI-1, 31.1 µM (inactive); in the experiment on HCT-116, 22.6 µM (inactive); in the experiment on IGROV-1 it was 31.3 µM (inactive); with MCF7, 25.5 µM (inactive). Also, the GI50 is 19.1 µM (inactive) in the experiment on MOLT-4; 27 µM (inactive) with NCI-H23; 30.5 µM (inactive) in the experiment on NCI-H460; 26.7 µM (inactive) in the experiment with NCI-H522; 34.8 µM (inactive) in the experiment with NCI/ADR-RES; 39.6 µM (inactive) in the experiment on OVCAR-3. Besides, the GI50 is 51.6 µM (inactive) in the experiment on OVCAR-5; 35.6 µM (inactive) in the experiment with OVCAR-8; 21.7 µM (inactive) in the experiment with SK-MEL-2; 26.3 µM (inactive) in the experiment with SW-620; 17.8 µM (inactive) in the experiment with U-251; 36.9 µM (inactive) in the experiment with UACC-257.

As for `O=C(O)c1cccc2c1/C(=N/Nc1ccccc1)CC2`, the GI50 is > 100 µM (inactive) with 786-0; > 100 µM (inactive) in the experiment with ACHN; 26.1 µM (inactive) in the experiment on CAKI-1; > 100 µM (inactive) in the experiment on HCT-116; > 100 µM (inactive) in the experiment with IGROV-1; 45.1 µM (inactive) in the experiment with MCF7. Besides, the GI50 is > 100 µM (inactive) in the experiment on MOLT-4; > 100 µM (inactive) in the experiment with NCI-H23; 32.1 µM (inactive) with NCI-H460; > 100 µM (inactive) with NCI-H522; > 100 µM (inactive) in the experiment with NCI/ADR-RES; > 100 µM (inactive) with OVCAR-3. Moreover, the GI50 in the experiment with OVCAR-5 was > 100 µM (inactive); in the experiment on OVCAR-8, > 100 µM (inactive); in the experiment with SK-MEL-2 it was 66.8 µM (inactive); in the experiment on SW-620, > 100 µM (inactive); in the experiment with U-251, > 100 µM (inactive); in the experiment with UACC-257 it was 65.9 µM (inactive).

With `COC(=O)CC1(O)C(C=C(C)C)C(C(=O)OC)C(=O)C(C(=O)OC)C1C(=O)OC` (stereo unspecified), the GI50 in the experiment on 786-0, with ACHN, with CAKI-1, with HCT-116, with IGROV-1 and with MCF7 was > 100 µM (inactive) throughout. The GI50 was > 100 µM (inactive) in the experiment with MOLT-4; > 100 µM (inactive) with Malme-3M; > 100 µM (inactive) with NCI-H23; > 100 µM (inactive) in the experiment on NCI-H460; > 100 µM (inactive) in the experiment with NCI-H522; 38.5 µM (inactive) in the experiment on NCI/ADR-RES. For the same molecule, the GI50 with OVCAR-3, in the experiment with OVCAR-5, in the experiment with OVCAR-8, in the experiment on SK-MEL-2, in the experiment on SW-620 and with U-251 was > 100 µM (inactive) throughout. The GI50 in the experiment on UACC-257 was > 100 µM (inactive).

As to `C#CC1(O)CCCCCCCCC2(CCCCCCCC1)OCCO2`, the GI50 in the experiment on 786-0 is 17.6 µM (inactive); in the experiment on ACHN, 13.8 µM (inactive); with CAKI-1, 12 µM (inactive); in the experiment on HCT-116, 16.5 µM (inactive); in the experiment on IGROV-1 it was 16.7 µM (inactive); in the experiment on MCF7, 20.3 µM (inactive). Also, the GI50 in the experiment on Malme-3M is 19.5 µM (inactive); with NCI-H23, 16.8 µM (inactive); in the experiment on NCI-H460, 21.3 µM (inactive); in the experiment on NCI-H522, 2.56 µM (inactive); in the experiment on NCI/ADR-RES it was 18.1 µM (inactive); with OVCAR-3, 15.4 µM (inactive). Moreover, the GI50 in the experiment on OVCAR-5 is 22 µM (inactive); in the experiment with OVCAR-8, 19.4 µM (inactive); in the experiment with SK-MEL-2, 13.7 µM (inactive); with SW-620, 18.8 µM (inactive); with U-251, 17.1 µM (inactive); in the experiment with UACC-257 it was 23.4 µM (inactive).

`CC1=CC(O)(c2ccccc2)C(N2CCOCC2)N1O` (stereo unspecified): the GI50 in the experiment with 786-0, in the experiment on ACHN, in the experiment on CAKI-1, in the experiment with HCT-116, in the experiment with IGROV-1 and in the experiment with MCF7 was > 100 µM (inactive) each time. Further, the GI50 in the experiment with MOLT-4, with Malme-3M, in the experiment on NCI-H23, in the experiment on NCI-H460, in the experiment on NCI-H522 and in the experiment on NCI/ADR-RES was > 100 µM (inactive) each time. Also, the GI50 was > 100 µM (inactive) with OVCAR-3; > 100 µM (inactive) in the experiment on OVCAR-5; > 100 µM (inactive) with OVCAR-8; 81.1 µM (inactive) with SK-MEL-2; > 100 µM (inactive) in the experiment on SW-620; > 100 µM (inactive) in the experiment with U-251. In addition, the GI50 in the experiment on UACC-257 is > 100 µM (inactive).

In the case of `CCOc1ccc(NC(=S)N/C=C(/C(C)=O)C(=O)Nc2ccccc2C)cc1`, the GI50 in the experiment on 786-0, in the experiment with ACHN, in the experiment on CAKI-1, in the experiment with HCT-116, with IGROV-1 and with MCF7 was > 100 µM (inactive) in each case. Further, the GI50 with MOLT-4, in the experiment with NCI-H23, with NCI-H460, with NCI-H522, in the experiment with NCI/ADR-RES and in the experiment with OVCAR-3 was > 100 µM (inactive) throughout. Also, the GI50 in the experiment with OVCAR-5, in the experiment on OVCAR-8, in the experiment on SK-MEL-2, in the experiment on SW-620, in the experiment with U-251 and in the experiment on UACC-257 was > 100 µM (inactive) each time.

Take `Cc1ccc(-c2ccc(Nc3c4ccccc4nc4ccccc34)cc2)cn1`: the GI50 in the experiment on 786-0 was 1.66 µM (inactive); in the experiment with ACHN, 2.32 µM (inactive); with CAKI-1 it was 2.72 µM (inactive); in the experiment with HCT-116 it was 2.91 µM (inactive); in the experiment with IGROV-1, 5.43 µM (inactive); with MCF7, 2.26 µM (inactive). Also, the GI50 in the experiment on MOLT-4 is 1.03 µM (active); in the experiment on NCI-H23, 4.66 µM (inactive); in the experiment with NCI-H460, 1.44 µM (inactive); in the experiment with NCI-H522, 2.83 µM (inactive); in the experiment with NCI/ADR-RES it was 8.89 µM (inactive); in the experiment with OVCAR-3 it was 2.63 µM (inactive). Also, the GI50 in the experiment on OVCAR-5 was 19.5 µM (inactive); in the experiment on OVCAR-8, 4.81 µM (inactive); in the experiment on SK-MEL-2, 1.87 µM (inactive); in the experiment on SW-620, 4.01 µM (inactive); in the experiment on UACC-257, 7.13 µM (inactive).
